Compound: CN(C)C(=N)NC(=N)N [Metformin] + C[C@]1(O)C[C@@H](c2nc(-c3ccc4ccc(-c5ccccc5)nc4c3)c3c(N)nccn32)C1 [Linsitinib] (partner 1 µM)
Assay: relative viability (nuclei count vs DMSO), 5 days (fraction); higher = more cells survive
Settings: first compound 10 µM
Procedure, shortened: (§1)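 Cells from lung cancer lines were seeded into 1536-well plates and, one day later, dosed by pin tool. Treatments were either a single drug or a fixed dose of an anchor drug with five library-drug doses (not always all listed) in √10 steps. After 5 days, nuclei were stained in a one-step fixation (final 0.05% Triton X-100, 1% formaldehyde, 1 ug/ml Hoechst) and counted on 4× images, and relative viability is the treated-to-vehicle nuclei ratio, as the median of duplicate plates.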

| Cell Line | relative viability |
| --- | --- |
| CAL-12T | 0.818 |
| COR-L23 | 0.821 |
| COR-L 105 | 1.06 |
| Calu-6 | 0.862 |
| EBC-1 | 0.796 |
| EKVX | 0.739 |
| EMC-BAC-2 | 0.795 |
| EPLC-272H | 1.39 |
| H3255 | 0.942 |
| HARA | 1.14 |
| HCC-15 | 0.877 |
| HCC-44 | 0.712 |
| HCC-78 | 0.842 |
| HCC-366 | 0.646 |
| HOP-62 | 0.891 |
| IA-LM | 0.119 |
| LCLC-97TM1 | 0.175 |
| LCLC-103H | 1.05 |
| LK-2 | 0.906 |
| LOU-NH91 | 1.01 |
| NCI-H441 | 0.432 |
| NCI-H1299 | 1.03 |
| NCI-H1395 | 0.997 |
| NCI-H1703 | 1.41 |
| NCI-H1793 | 1.3 |

Same assay, conditions: first compound 31.62 µM

| Cell Line | relative viability |
| --- | --- |
| 201T | 1.12 |
| A549 | 0.789 |
| A-427 | 1.13 |
| ABC-1 | 0.675 |
| BEN | 1.27 |
| CAL-12T | 0.81 |
| COR-L23 | 0.828 |
| COR-L 105 | 1.23 |
| Calu-6 | 0.971 |
| EBC-1 | 0.997 |
| EKVX | 0.969 |
| EMC-BAC-2 | 0.812 |
| EPLC-272H | 1.39 |
| H3255 | 1.08 |
| HARA | 1.07 |
| HCC-15 | 0.965 |

| Cell Line | relative viability |
| --- | --- |
| HCC-44 | 0.679 |
| HCC-78 | 0.927 |
| HCC-366 | 0.703 |
| HCC-827 | 0.89 |
| HOP-62 | 1.09 |
| IA-LM | 0.729 |
| LC-2-ad | 0.716 |
| LCLC-97TM1 | 0.17 |
| LCLC-103H | 1.26 |
| LK-2 | 0.996 |
| LOU-NH91 | 0.876 |
| NCI-H1299 | 1.04 |
| NCI-H1395 | 1.15 |
| NCI-H1703 | 0.892 |
| NCI-H1793 | 1.22 |

Same assay, conditions: first compound 100 µM

| Cell Line | relative viability |
| --- | --- |
| 201T | 1.1 |
| A549 | 0.85 |
| A-427 | 1.09 |
| ABC-1 | 0.971 |
| BEN | 1.3 |
| CAL-12T | 0.824 |
| COR-L23 | 0.9 |
| COR-L 105 | 0.977 |
| Calu-6 | 0.921 |
| EBC-1 | 0.815 |
| EKVX | 1.04 |
| EMC-BAC-2 | 0.799 |
| EPLC-272H | 1.26 |
| H3255 | 0.961 |
| HARA | 1.2 |
| HCC-15 | 0.953 |

| Cell Line | relative viability |
| --- | --- |
| HCC-44 | 0.695 |
| HCC-78 | 0.877 |
| HCC-366 | 0.75 |
| HCC-827 | 0.945 |
| HOP-62 | 0.995 |
| IA-LM | 0.611 |
| LC-2-ad | 0.628 |
| LCLC-97TM1 | 0.146 |
| LCLC-103H | 1.06 |
| LK-2 | 0.948 |
| LOU-NH91 | 0.986 |
| NCI-H441 | 0.536 |
| NCI-H1299 | 1 |
| NCI-H1395 | 0.934 |
| NCI-H1703 | 0.832 |
| NCI-H1793 | 1.14 |

Same assay, conditions: first compound 316.23 µM

| Cell Line | relative viability |
| --- | --- |
| 201T | 1.07 |
| A549 | 0.631 |
| A-427 | 1.1 |
| ABC-1 | 0.307 |
| BEN | 1.15 |
| CAL-12T | 0.691 |
| COR-L23 | 0.77 |
| COR-L 105 | 0.87 |
| Calu-6 | 0.941 |
| EBC-1 | 0.698 |
| EKVX | 0.861 |
| EMC-BAC-2 | 0.783 |
| EPLC-272H | 1.08 |
| H3255 | 0.938 |
| HARA | 0.872 |
| HCC-15 | 0.857 |

| Cell Line | relative viability |
| --- | --- |
| HCC-44 | 0.597 |
| HCC-78 | 0.681 |
| HCC-366 | 0.559 |
| HCC-827 | 0.883 |
| HOP-62 | 1.04 |
| IA-LM | 0.404 |
| LC-2-ad | 0.695 |
| LCLC-97TM1 | 0.187 |
| LCLC-103H | 1.12 |
| LK-2 | 0.694 |
| LOU-NH91 | 1.09 |
| NCI-H441 | 0.478 |
| NCI-H1299 | 0.958 |
| NCI-H1395 | 1.02 |
| NCI-H1703 | 0.485 |
| NCI-H1793 | 1 |

Same assay, conditions: first compound 1000 µM

| Cell Line | relative viability |
| --- | --- |
| 201T | 1.06 |
| A549 | 0.711 |
| A-427 | 1.04 |
| ABC-1 | 0.325 |
| BEN | 1.29 |
| CAL-12T | 0.759 |
| COR-L23 | 0.843 |
| COR-L 105 | 0.815 |
| Calu-6 | 0.978 |
| EBC-1 | 0.884 |
| EKVX | 0.9 |
| EMC-BAC-2 | 0.853 |
| EPLC-272H | 1.51 |
| H3255 | 0.873 |
| HARA | 1.06 |
| HCC-15 | 0.947 |

| Cell Line | relative viability |
| --- | --- |
| HCC-44 | 0.654 |
| HCC-78 | 0.927 |
| HCC-366 | 0.691 |
| HCC-827 | 0.973 |
| HOP-62 | 0.846 |
| IA-LM | 0.78 |
| LC-2-ad | 0.678 |
| LCLC-97TM1 | 0.243 |
| LCLC-103H | 1.19 |
| LK-2 | 0.81 |
| LOU-NH91 | 0.905 |
| NCI-H441 | 0.605 |
| NCI-H1299 | 0.974 |
| NCI-H1395 | 0.385 |
| NCI-H1703 | 0.599 |
| NCI-H1793 | 1.16 |

Compound: N#CC1(c2ccc(NC(=O)c3cccnc3NCc3ccncc3)cc2)CCCC1 [Apatinib] + COc1cccc2cc(-c3nc([C@H]4CC[C@H](C(=O)O)CC4)n4ncnc(N)c34)[nH]c12 [OSI-027] (partner 0.5 µM)
Assay: as above
Settings: first compound 0.08 µM
Procedure, shortened: as §1

| Cell Line | relative viability |
| --- | --- |
| A-427 | 0.52 |
| BEN | 0.283 |
| CAL-12T | 0.652 |
| COR-L23 | 0.844 |
| COR-L 105 | 0.775 |
| ChaGo-K-1 | 0.628 |
| EKVX | 0.684 |
